Experimental data taken from patent US8329645B2, “Polymyxin derivatives and uses thereof” (priority 2008, dated 2012).
≈ marks a conversion by molar mass, not a printed value. Where two headings read alike, the source gives them in different places. Where a SMILES comes first, the peptide text is derived from it. Bridges are numbered along the chain shown (N, C = ends). [ ]: non-standard residue; d: D form. The star is where a group is joined. Decanoyl = CCCCCCCCCC(=O)*; Octanoyl = CCCCCCCC(=O)*; Dab = NCC[C@H](N)C(=O)O; Abu = CC[C@H](N)C(=O)O

How the values were obtained:
[1] = test system: A. baumannii ATCC 19606; assay: Sensitization to rifampin: growth inhibition around wells on LB plates containing rifampin; type: cell-based, Acinetobacter baumannii; settings: 4 μg
[2] = test system: S. marcescens ATCC 8100
Procedure: (§1) Polymyxin B sulfate (Sigma-Aldrich, St. Louis, Mo., USA) was used as a control. […] The bacterial test strains originated from ATCC (10 strains), CCUG (11 strains), and NCTC (3 strains). Fourteen (14) strains (the F-strains) were purchased from Mobidiag Ltd., Helsinki, Finland.
(§2) The inocula were prepared by adjusting the bacterial suspensions to a density equivalent to OD546 nm˜0.3 (˜10^8 CFU/ml˜0.5 McFarland) the yeast suspension to a density equivalent to OD546 nm˜0.75 (˜2×10^7 CFU/ml)._The suspensions were diluted to 10^7 CFU/ml. The plates were inoculated by using a Denley Multipoint Inoculator, 1 μl per spot corresponding to approx. 10^4 CFU/spot. Plates were incubated for 16-20 hours at 35° C.

[3] = test system: E. coli F19
Procedure: as §1, §2

[4] = test system: K. pneumoniae F136
Procedure: as §1, §2

[5] = test system: E. coli F8
Procedure: as §1, §2

[6] = test system: E. cloacae F231
Procedure: as §1, §2

[7] = test system: E. coli NCTC 13351
Procedure: as §1, §2

[8] = test system: E. coli CCUG 41424
Procedure: as §1, §2

[9] = test system: E. coli F9
Procedure: as §1, §2

[10] = test system: S. maltophilia ATCC 17444
Procedure: as §1, §2

[11] = test system: P. aeruginosa CCUG 51971
Procedure: as §1, §2

[12] = test system: A. baumannii ATCC 19606
Procedure: as §1, §2

[13] = test system: E. coli NCTC 13352
Procedure: as §1, §2

[14] = test system: E. coli CCUG 41425
Procedure: as §1, §2

[15] = test system: E. coli IH3080
Procedure: as §1, §2

[16] = test system: K. oxytoca CCUG 51683
Procedure: as §1, §2

[17] = test system: E. cloacae ATCC 23355
Procedure: as §1, §2

[18] = test system: C. albicans ATCC 28366
Procedure: as §1, §2

[19] = test system: E. coli IH3080; assay: Growth inhibition around wells on LB agar plates; type: cell-based, Escherichia coli
In short: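 Growth inhibition of encapsulated E. coli IH3080 (K1:O018) was assessed on LB agar plates. A suspension of about 10^8 cells/ml in 0.9% NaCl, made from an overnight LB agar culture, was spread across the plate surface and the excess removed. After drying, 2 mm wells were drilled, with 0.9% NaCl as control. Following 18 h at 37° C., inhibition zone diameters around wells were converted to areas in square mm.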

[20] = test system: E. coli IH3080; assay: Sensitization to rifampin: growth inhibition around wells on LB plates containing rifampin; type: cell-based, Escherichia coli; settings: 4 μg of compound
[21] = test system: E. coli F18; type: cell-based, Escherichia coli
Procedure: The MIC values of NAB 739, NAB 740, and NAB7061 were determined by using the agar dilution method according to the CLSI protocol M7-A7. Polymyxin B sulfate (Sigma-Aldrich, St. Louis, Mo., USA) was used as a control. […]; two-fold increments) of the test substances were used. The bacterial test strains originated from ATCC (10 strains), CCUG (11 strains), and NCTC (3 strains). Fourteen (14) strains (the F-strains) were purchased from Mobidiag Ltd., Helsinki, Finland. Besides bacteria, the MIC was also determined for the yeast Candida albicans (ATCC 28366 from ATCC).
as §2

Row | Compound | growth inhibition around a well in the presence of rifampin ([1]; rifampin 0 μg/ml) [square millimeters] | growth inhibition around a well in the presence of rifampin ([1]; rifampin 0.3 μg/ml) [square millimeters] | MIC ([2]; ATCC 8100) [µg/mL] | MIC ([3]; F19) [µg/mL] | MIC ([4]; F136) [µg/mL] | MIC ([5]; F8) [µg/mL] | MIC ([6]; F231) [µg/mL] | MIC ([8]; CCUG 41424) [µg/mL] | MIC ([9]; F9) [µg/mL] | MIC ([10]; ATCC 17444) [µg/mL] | MIC [11] [µg/mL] | MIC ([12]; ATCC 19606) [µg/mL] | MIC ([13]; NCTC 13352) [µg/mL] | MIC ([14]; CCUG 41425) [µg/mL] | MIC ([15]; IH3080) [µg/mL] | MIC ([16]; CCUG 51683) [µg/mL] | MIC ([17]; ATCC 23355) [µg/mL] | MIC ([18]; ATCC 28366) [µg/mL] | growth inhibition around a well in the presence of rifampin ([20]; rifampin 0 μg/ml) [square millimeters] | MIC [21] [µg/mL] | further results
1 | CCCCCCCC(=O)N[C@H](C(=O)N[C@@H](CC)C(=O)N[C@H]1CCNC(=O)[C@H]([C@@H](C)O)NC(=O)[C@H](CCN)NC(=O)[C@H](CCN)NC(=O)[C@H](CC(C)C)NC(=O)[C@@H](Cc2ccccc2)NC(=O)[C@H](CCN)NC1=O)[C@@H](C)O [NAB 7061, OA-Thr-Abu-cy[Dab-Dab-DPhe-Leu-Dab-Dab-Thr-]] (Octanoyl-T[Abu][Dab][Dab][dF]L[Dab][Dab]T; lactam 3-C) | 0 | 50 | >32 | 32 (≈ 29.8 µM) | >32 | >32 | 32 (≈ 29.8 µM) | 32 (≈ 29.8 µM) | >32 | >32 | >32 | >32 | 32 (≈ 29.8 µM) | >32 | >32 | 32 (≈ 29.8 µM) | 32 (≈ 29.8 µM) | >32 | 0 | >32 | MIC ([7]; NCTC 13351): >32 µg/mL; growth inhibition around a well ([19]; 4 μg of compound per well): 0 square millimeters
2 | CCCCCCCC(=O)N[C@H](C(=O)N[C@H](CO)C(=O)N[C@H]1CCNC(=O)[C@H]([C@@H](C)O)NC(=O)[C@H](CCN)NC(=O)[C@H](CCN)NC(=O)[C@H](CC(C)C)NC(=O)[C@@H](Cc2ccccc2)NC(=O)[C@H](CCN)NC1=O)[C@@H](C)O [NAB 739, OA-Thr-DSer-cy[Dab-Dab-DPhe-Leu-Dab-Dab-Thr-]] (Octanoyl-T[dS][Dab][Dab][dF]L[Dab][Dab]T; lactam 3-C) | 113 | 314 | >32 | 0.5 (≈ 0.465 µM) | 1 (≈ 0.929 µM) | 1 (≈ 0.929 µM) | 2 (≈ 1.86 µM) | 1 (≈ 0.929 µM) | 1 (≈ 0.929 µM) | 16 (≈ 14.9 µM) | 8 (≈ 7.43 µM) | 8 (≈ 7.43 µM) | 1 (≈ 0.929 µM) | 1 (≈ 0.929 µM) | 1 (≈ 0.929 µM) | 2 (≈ 1.86 µM) | 2 (≈ 1.86 µM) | >32 | 133 | 1 (≈ 0.929 µM) | growth inhibition around a well in the presence of rifampin ([1]; rifampin 0.1 μg/ml): 177 square millimeters; growth inhibition around a well in the presence of rifampin ([20]; rifampin 0.1 μg/ml): 177 square millimeters; growth inhibition around a well in the presence of rifampin ([20]; rifampin 1.0 μg/ml): 201 square millimeters
3 | CCCCCCCCCC(=O)N[C@H](C(=O)N[C@H](CO)C(=O)N[C@H]1CCNC(=O)[C@H]([C@@H](C)O)NC(=O)[C@H](CCN)NC(=O)[C@H](CCN)NC(=O)[C@H](CC(C)C)NC(=O)[C@@H](Cc2ccccc2)NC(=O)[C@H](CCN)NC1=O)[C@@H](C)O [NAB 740, DA-Thr-DSer-cy[Dab-Dab-DPhe-Leu-Dab-Dab-Thr-]] (Decanoyl-T[dS][Dab][Dab][dF]L[Dab][Dab]T; lactam 3-C) | 133 | 154 | >32 | 1 (≈ 0.906 µM) | 2 (≈ 1.81 µM) | 2 (≈ 1.81 µM) | 2 (≈ 1.81 µM) | 2 (≈ 1.81 µM) | 2 (≈ 1.81 µM) | 8 (≈ 7.24 µM) | 8 (≈ 7.24 µM) | 4 (≈ 3.62 µM) | 1 (≈ 0.906 µM) | 2 (≈ 1.81 µM) | 2 (≈ 1.81 µM) | 2 (≈ 1.81 µM) | 2 (≈ 1.81 µM) | >32 | 95 | 2 (≈ 1.81 µM) | MIC ([7]; NCTC 13351): 1 µg/mL (≈ 0.906 µM); growth inhibition around a well ([19]; 10 μg of compound per well): 133 square millimeters; growth inhibition around a well in the presence of rifampin ([20]; rifampin 0.1 μg/ml): 95 square millimeters; growth inhibition around a well in the presence of rifampin ([20]; rifampin 1.0 μg/ml): 95 square millimeters
4 | Polymyxin B [reference compound] |  |  |  |  |  |  |  |  |  |  |  |  |  |  |  |  |  |  | 79 | 0.5 | MIC ([2]; S. marcescens ATCC8100): >32 µg/mL; MIC ([3]; E. coli F19): 1 µg/mL; MIC ([4]; K. pneumoniae F136): 0.5 µg/mL; MIC ([5]; E. coli F8): 1 µg/mL; MIC ([6]; E. cloacae F231): 0.5 µg/mL; MIC ([7]; E. coli NCTC13351): 0.5 µg/mL; MIC ([8]; E. coli CCUG41424): 1 µg/mL; MIC ([9]; E. coli F9): 0.5 µg/mL; MIC ([10]; S. maltophilia ATCC17444): 1 µg/mL; MIC ([12]; A. baumannii ATCC 19606): 1 µg/mL; MIC ([13]; E. coli NCTC 13352): 0.25 µg/mL; MIC ([14]; E. coli CCUG41425): 0.5 µg/mL; MIC ([15]; E. coli IH3080): 0.5 µg/mL; MIC ([16]; K. oxytoca CCUG51683): 0.5 µg/mL; MIC ([17]; E. cloacae ATCC23355): 0.5 µg/mL; MIC ([18]; C. albicans ATCC 28366): >32 µg/mL; growth inhibition around a well ([19]; 4 μg of compound per well, listed as Polymyxin B sulfate): 95 square millimeters; growth inhibition around a well in the presence of rifampin ([20]; rifampin 0.1 μg/ml): 95 square millimeters; growth inhibition around a well in the presence of rifampin ([20]; rifampin 1.0 μg/ml): 104 square millimeters
